This is an account of results in patent US12433876B2, “Septin inhibitors for treatment of cancers” (UNIVERSITY OF ROCHESTER, priority 2019, dated 2025).

What all share (type): cell-based
Assay [1] has as its system ECC-1 cells. Description: MTS cell viability, ECC-1. Particulars: ECC-1, 48 hours. The protocol:
Cell lines, Culture, and Reagents. Cells were maintained in either DMEM (SKOV-3, KLE, OVCAR-3, OVCAR8-C5 and IGROV-1) or RPMI-1640 (ECC-1 and HCH-1), supplemented with 10% fetal calf serum (or 20% for OVCAR-3), penicillin (100 units/mL), and streptomycin (100 μg/mL) at 37° C. with 5% CO2 in a humidified incubator. Antibodies were purchased from Abcam (septin-2; ab179436) and Cell Signaling Technology; ERK (9102), p-ERK (4370), -actin (3700), u-Tubulin (2144), EGFR (4267) and HER2 (4290). FCF was purchased from Abcam. All other chemicals were from Sigma Aldrich. Synthesis of Derivaties. […] The reaction was monitored using thin-layer chromatography plates with DCM-MeOH or pure ethyl acetate as eluent. Spots were monitored in a UV chamber. The reaction mixture, upon completion of the reaction, was poured into wet ice mixture and triturated, then the separated solid was filtered by vacuum. The product was washed with hexane, followed by diethyl ether, and was dried under vacuum. The compounds were characterized by spectrophotometric techniques. Quantitative Real-Time PCR. The indicated cell lines were transfected with siRNA targeting septin-2 or non-targeting control siRNA (Santa Cruz Biotechnology: sc-37007 or sc-40936) using Lipofectamine 3000 (Invitrogen). […] Quantitative real-time PCR was conducted using QuantStudio 12 K Flex Real-Time PCR System (ABI) and the Taqman Gene Expression Assay (ABI) consisting of the FAM-labeled probes as follows: SEPT2 (Hs01565417_ml); WFDC2 (Hs00899484_ml); TBP (Hs00427620_ml) or B2M (Hs00187842_ml), which was used as reference for normalization. […] Cell viability, proliferation, and cellular apoptosis were measured using the MTS (Promega), BrdU cell proliferation (Cell Signaling Technology), and Caspase-Glo 3/7 apoptosis detection (Promega) assays, following the respective manufacturer's recommendations with suitable modification. […] Survival curves between septin high and low population and their statistical significance were analyzed using GraphPad Prism software (Mantel-Cox test). […]

The test system of assay [2] is ECC-1 cells. The experiment in a line: Caspase-3/7 activity apoptosis assay. Particulars: ECC-1, 33 μM, 48 hours. The protocol:
Cell lines, Culture, and Reagents. Cells were maintained in either DMEM (SKOV-3, KLE, OVCAR-3, OVCAR8-C5 and IGROV-1) or RPMI-1640 (ECC-1 and HCH-1), supplemented with 10% fetal calf serum (or 20% for OVCAR-3), penicillin (100 units/mL), and streptomycin (100 μg/mL) at 37° C. with 5% CO2 in a humidified incubator. Antibodies were purchased from Abcam (septin-2; ab179436) and Cell Signaling Technology; ERK (9102), p-ERK (4370), -actin (3700), u-Tubulin (2144), EGFR (4267) and HER2 (4290). FCF was purchased from Abcam. All other chemicals were from Sigma Aldrich. Synthesis of Derivaties. […] The reaction was monitored using thin-layer chromatography plates with DCM-MeOH or pure ethyl acetate as eluent. Spots were monitored in a UV chamber. […] Quantitative Real-Time PCR. […] Quantitative real-time PCR was conducted using QuantStudio 12 K Flex Real-Time PCR System (ABI) and the Taqman Gene Expression Assay (ABI) consisting of the FAM-labeled probes as follows: SEPT2 (Hs01565417_ml); WFDC2 (Hs00899484_ml); TBP (Hs00427620_ml) or B2M (Hs00187842_ml), which was used as reference for normalization. […] Cell viability, proliferation, and cellular apoptosis were measured using the MTS (Promega), BrdU cell proliferation (Cell Signaling Technology), and Caspase-Glo 3/7 apoptosis detection (Promega) assays, following the respective manufacturer's recommendations with suitable modification. […]

A further assay has as its system septin-9. The experiment in a line: Immunoblot of septin-9 expression. The conditions noted are these: 48 hours. In general terms: Immunoblotting shows a protein as a band on a membrane.

With `O=C(Nc1cc(Cl)nc(Cl)c1)Nc1cccc(SC(F)(F)F)c1F` [UR214-9], the concentration inhibiting viability result with ECC-1 cells [1] (MTS (FIG. 2B)) is on record as “around 33 μM”. Besides, the “apoptosis (caspase-3/7 activity)” value with ECC-1 cells [2] was “much more effective”. The “septin-9 protein expression levels (western blot)” value in the assay with septin-9 (MDA-MB-231, JIMT-1 and MCF-7 cells, 10 and 30 μM) was “does not alter the protein expression levels”. For the same molecule, the “septin-9 expression (immunoblot)” value in the assay with septin-9 (PANC-1, 1.0 and 10.0 μM) is “completely inhibited”.

Regarding `O=C(Nc1ccccc1)Nc1ccnc(Cl)c1` [FCF, N-(2-chloro-4-pyridyl)-N′-phenylurea, reference compound], the viability result in the assay on ECC-1 cells [1] (MTS, lower dose ranges) is “lacked activity”.
